Measured values from patent US6933322B2, “Substituted naphthylenes for the treatment of non-insulin dependent diabetes mellitus” (Wyeth, priority 2002, dated 2005).

Tests used:
[1] = system: diabetic ob/ob mice; assay: Hypoglycemic effect in diabetic ob/ob mice; format: in vivo, mouse
Protocol: Hypoglycemic Effect in Diabetic OB/OB Mice
Procedure: In each study, male or female ob/ob (C57 B1/6J) mice and their mean litermates (ob/+ or +/+, Jackson Laboratories) ages 2 to 5 months (10 to 65 g) were randomized according to plasma glucose into 4 groups of 10 mice. The mice were housed 5 per cage and were maintained on normal rodent chow with water ad libitum. Mice receive compound daily by gavage (suspended in 0.5 ml of 0.5% methyl cellulose); dissolved in the drinking water; or admixed in the diet. The dose of compounds given ranges from 2.5 to 200 mg/kg body weight/day. Body weight of fed animals was measured at the beginning of each week and doses for the entire week were calculated using this weight and were expressed in terms of the active moiety of the compound. Control mice receive vehicle only. […]
Measurements: The plasma was isolated by centrifugation and the concentration of glucose was measured enzymatically on an Abbott V. P. Analyzer and the plasma concentration of insulin was determined by radioimmunoassay (Heding, 1972)
Analysis of variance followed by Dunnett's Comparison Test (one-tailed) was used to estimate the significant difference between the plasma glucose values from the control group and the individual compound treated groups (CMS SAS Release 5.18). A compound will be considered active if the difference has a p<0.05.

[2] = system: hepatocytes isolated and cultured from obese Zucker (fa/fa) rats; assay: Inhibition of glucose output from hepatocytes isolated and cultured from obese Zucker (fa/fa) rats; format: cell-based, rat; conditions: inhibition of glucose output compared to glucagon stimulated cells
Protocol: Inhibition of Glucose Output from Hepatocytes Isolated and Cultured from Obese Zucker (fa/fa) Rats and Their Lean Controls
Culturing of Hepatocytes: Isolated hepatocytes were plated on 12 well rat-tail collagen coated plates at a cell density of 5×10(5) cells/ml (approximately 1 ml of cell suspension per well). Following a one hour attachment period in which plates were incubated in a CO2 incubator at 37 deg C. (95% O2, 5% CO2), the supernatant containing unattached hepatocytes was removed and replaced with fresh media (1 ml/well) containing 1 μM dexamethasone and 100 pM insulin. Cells were maintained at 37 deg C. for 48 hours in a 95% O2, 5% CO2 environment. At the end of the first 24 hours, the media was aspirated off of the wells and replaced with fresh media containing the same concentrations of dexamethasone and insulin as described earlier. Treatment with Drugs and Assessment of Glucose Output: Drugs were routinely added with fresh media 24 hours after the initial attachment period. Eighteen hours later, media was aspirated and 500 μl of fresh Hank's buffer, Buffer D (glucose-free) supplemented with hormones, gluconeogenic substrates and drug(s) was added to each well and incubated for 4 hours. At the end of the 4 hour incubation, media from each well was removed and assayed for glucose content using the hexokinase/glucose-6-phosphate dehydrogenase coupled assay on the Boehringer Mannheim model 911 auto analyzer. Glucose concentration was expressed as μg/ml. Three of the plates from each treated group were frozen for subsequent determination of protein content. Two plates from each treatment group were used to assess the cytotoxicity of drug(s) and other agents as determined by the MTT (tetrazolium) dye reduction method (see below).
Protein test procedure: Three plates with no insulin treatment and three plates with 10^−8 M insulin treatment were used for protein determination. After supernatant has been removed for determination of glucose output the plates were frozen and stored at −20 deg C. until ready to assay for protein content. Prior to determination of protein the plates were defrosted at room temperature for 15 minutes. An aliquot of 1 ml 0.1 N NaOH was added to each well. Plates were incubated at 4 deg C. overnight. Solutions for measurement of protein content were mixed by pipetting the NaOH solution up and down several time with a 1 ml pipette and then transferring to a small polyethylene tube. Protein determination was based on that of the Pierce BCA protein assay protocol (Pierce cat. no. 23223). A set of protein standards (0.2, 0.4, 0.6, 0.8, and 1 mg/ml BSA) was prepared by serial dilution of 1 mg/ml bovine serum albumin with 0.1 N NaOH, and 40 μl of each standard, or control blank was pipetted into a 96-well plate in duplicate. Each unknown protein sample (40 μl) was tested in triplicate. An aliquot of 200 μl of BCA protein assay reagent (consisting of 50 parts Reagent A with 1 part Reagent B) was added to each well. Samples were mixed with a Titertek pipette. The microtiter plate was covered with sealing tape and incubated at room temperature for 1 hour. After incubation, the sealing tape was removed and absorbance measured on a plate reader (Uvmax kinetic microplate reader, Molecular Devices) at 570 nm. A standard curve was prepared by plotting the blank-corrected absorbance against known protein concentrations, and protein concentrations were then determined for each unknown.
Measurements and Calculations: Glucose output was calculated as μg glucose/mg protein/hour, and inhibition of glucose output was calculated as percent inhibition of glucose output when compared to glucagon stimulated cells. Cytotoxicity was determined using the MTT dye reduction assay and data were expressed as percent inhibition of MTT dye reduction compared to control cells. […]

[3] = system: diabetic ob/ob mice; conditions: reference compound, 20 mg/kg/day; cited from earlier work

O=S(=O)(Nc1ccc2c(OCc3ccc(-c4ccccc4)cc3F)cccc2c1)C(F)(F)F [Example 4, C,C,C-Trifluoro-N-[5-(3-fluoro-biphenyl-4-ylmethoxy)-naphthalen-2-yl]-methanesulfonamide]
melting point: 123 to 125 °C | REDUCTION IN PLASMA GLUCOSE Day 1 (6 hr) p.o. ([1]; 10 mg/kg): −28% (10 mg/kg) | REDUCTION IN PLASMA GLUCOSE Day 3 (6 hr) p.o. ([1]; 10 mg/kg): −37% (10 mg/kg)

O=S(=O)(Nc1ccc2c(OCc3ccc(-c4ccc(C(F)(F)F)cc4)cc3F)cccc2c1)C(F)(F)F [Example 5, C,C,C-Trifluoro-N-[5-(3-fluoro-4′-trifluoromethyl-biphenyl-4-ylmethoxy)-naphthalen-2-yl]-methanesulfonamide]
melting point: 98 to 100 °C | IC50 ([2]; Rattus norvegicus, Hepatocyte): 6.3 µM

O=S(=O)(Nc1ccc2c(OCc3cccc(OCc4ccc(-c5ccc6ccccc6c5)cc4)c3)cccc2c1)C(F)(F)F [Example 14, N-[5-(4-naphthalen-2-yl-benzyloxy-3-ylmethoxy)-naphthalen-2-yl]-C,C,C-trifluoro-methanesulfonamide]
IC50 [2]: 10.4 µM

O=S(=O)(Nc1ccc2c(OCc3ccc(-c4cccc(Cl)c4)cc3)cccc2c1)C(F)(F)F [Example 25, N-[5-(3′-Chloro-biphenyl-4-ylmethoxy)-naphthalen-2-yl]-C,C,C-trifluoromethanesulfonamide]
melting point: 170 to 171 °C | REDUCTION IN PLASMA GLUCOSE Day 1 (6 hr) p.o. ([1]; 10 mg/kg): −22% (10 mg/kg) | REDUCTION IN PLASMA GLUCOSE Day 3 (6 hr) p.o. ([1]; 10 mg/kg): −24% (10 mg/kg)

O=S(=O)(Nc1ccc2c(OCc3cccc(-c4ccccc4)c3)cccc2c1)C(F)(F)F [Example 27]
IC50 [2]: 7 µM | REDUCTION IN PLASMA GLUCOSE Day 3 (6 hr) p.o. ([1]; 10 mg/kg): −31% (10 mg/kg)

O=S(=O)(Nc1ccc2c(OCc3ccc(-c4ccc(Cl)c(Cl)c4)cc3Cl)cccc2c1)C(F)(F)F [Example 30, C,C,C-Trifluoro-N-[5-(3,3′,4′-trichloro-biphenyl-4-ylmethoxy)-naphthalen-2-yl]-methanesulfonamide]
melting point: 169 to 170 °C | IC50 ([2]; Rattus norvegicus, Hepatocyte): 3.1 µM | REDUCTION IN PLASMA GLUCOSE Day 1 (6 hr) p.o. ([1]; 25 mg/kg): −6% (25 mg/kg) | REDUCTION IN PLASMA GLUCOSE Day 3 (6 hr) p.o. ([1]; 25 mg/kg): −11% (25 mg/kg)

O=S(=O)(Nc1ccc2c(OCc3ccc(-c4ccc(Cl)cc4)cc3Cl)cccc2c1)C(F)(F)F [Example 31, N-[5-(3,4′-Dichloro-biphenyl-4-ylmethoxy)-naphthalen-2-yl]-C,C,C-trifluoro-methanesulfonamide]
melting point: 176 to 178 °C | IC50 ([2]; Rattus norvegicus, Hepatocyte): 2.6 µM | REDUCTION IN PLASMA GLUCOSE Day 1 (6 hr) p.o. ([1]; 5 mg/kg): −23% (5 mg/kg) | REDUCTION IN PLASMA GLUCOSE Day 3 (6 hr) p.o. ([1]; 5 mg/kg): −22% (5 mg/kg)

O=S(=O)(Nc1ccc2c(OCc3csc(-c4ccc(F)cc4F)n3)cccc2c1)C(F)(F)F [Example 46, N-{5-[2-(2,4-Difluoro-phenyl)-thiazol-4-ylmethoxy]-naphthalen-2-yl}-C,C,C-trifluoro-methanesulfonamide]
melting point: 191 to 192 °C | IC50 ([2]; Rattus norvegicus, Hepatocyte): 2.8 µM

O=S(=O)(Nc1ccc2c(OCc3csc(-c4ccc(C(F)(F)F)cn4)n3)cccc2c1)C(F)(F)F [Example 52, C,C,C-Trifluoro-N-{5-[2-(5-trifluoromethyl-pyridin-2-yl)-thiazol-4-yl-methoxy]naphthalen-2-yl}-methanesulfonamide]
melting point: 197 to 198 °C | IC50 ([2]; Rattus norvegicus, Hepatocyte): 12 µM

COc1ccc(-c2nc(COc3cccc4cc(NS(=O)(=O)C(F)(F)F)ccc34)cs2)cc1 [Example 53, C,C,C-Trifluoro-N-{5-[2-(4-methoxy-phenyl)-thiazol-4-ylmethoxy]-naphthalen-2-yl}-methanesulfonamide]
melting point: 151 to 152 °C | IC50 ([2]; Rattus norvegicus, Hepatocyte): 9.5 µM

O=S(=O)(Nc1ccc2c(OCc3csc(-c4ccc(C(F)(F)F)cc4)n3)cccc2c1)C(F)(F)F [Example 57, N-{5-[2-(4-trufluoromethyl-phenyl)-thiazol-4-ylmethoxy]-naphthalen-2-yl}-C,C,C-trifluoro-methanesulfonamide]
IC50 [2]: 1.5 µM | REDUCTION IN PLASMA GLUCOSE Day 3 (6 hr) p.o. ([1]; 10 mg/kg): −33% (10 mg/kg)

Cc1oc(-c2ccc(C(F)(F)F)cc2)nc1COc1cccc2cc(NS(=O)(=O)C(F)(F)F)ccc12 [Example 81]
REDUCTION IN PLASMA GLUCOSE Day 1 (6 hr) p.o. ([1]; 5 mg/kg): −28% (5 mg/kg) | REDUCTION IN PLASMA GLUCOSE Day 3 (6 hr) p.o. ([1]; 5 mg/kg): −33% (5 mg/kg)

Cc1oc(-c2ccc(F)cc2)nc1COc1cccc2cc(NS(=O)(=O)C(F)(F)F)ccc12 [Example 82, N-{5-[5-methyl-2-(4-fluoro-phenyl)-oxazol-4-ylmethoxy]naphthalen-2-yl}C,C,C-trifluoromethanesulfonamide]
melting point: 178 to 180 °C

O=S(=O)(Nc1ccc2c(OCc3ccc4ccccc4c3)cccc2c1)C(F)(F)F [Example 83, N-[5-(Naphthalen-2-ylmethoxy)-naphthalen-2-yl]-C,C,C-trifluoro-methanesulfonamide]
melting point: 140 to 142 °C

O=S(=O)(Nc1ccc2c(OCc3coc(-c4ccc(Cl)cc4)n3)cccc2c1)C(F)(F)F [Example 84, N-{5-[2-(4-Chloro-phenyl)-oxazol-4-ylmethoxy]naphthalen-2-yl}C,C,C-trifluoromethanesulfonamide]
melting point: 198 to 200 °C

CC(C)(C)c1ccc(-c2nc(COc3cccc4cc(NS(=O)(=O)C(F)(F)F)ccc34)co2)cc1 [Example 85, N-{5-[2-(4-tert-Butyl-phenyl)-oxazol-4-ylmethoxy]naphthalen-2-yl}C,C,C-trifluoromethanesulfonamide]
melting point: 165 to 167 °C

O=S(=O)(Nc1ccc2c(OCc3coc(-c4ccc(Br)cc4)n3)cccc2c1)C(F)(F)F [Example 86, N-{5-[2-(4-Bromo-phenyl)-oxazol-4-ylmethoxy]naphthalen-2-yl}C,C,C-trifluoromethanesulfonamide]
melting point: 205 to 207 °C

O=S(=O)(Nc1ccc2c(OCc3coc(-c4ccc(C(F)(F)F)cc4)n3)cccc2c1)C(F)(F)F [Example 87, N-{5-[2-(4-trifluoromethyl-phenyl)-oxazol-4-ylmethoxy]naphthalen-2-yl}C,C,C-trifluoromethanesulfonamide]
melting point: 205 to 207 °C

Cc1ccccc1-c1nc(COc2cccc3cc(NS(=O)(=O)C(F)(F)F)ccc23)co1 [Example 88, N-[5-[2-o-tolyl-oxazol-4-ylmethoxy)naphthalen-2-yl]C,C,C-trifluoromethanesulfonamide]
melting point: 127 to 130 °C

sodium metavanadate
lowering in plasma glucose [3]: significant lowering in plasma glucose
